According to patent US6242216A, “Nucleic acids encoding a functional human purinoreceptor P2X2 and P2X4, and methods of production and use thereof” (Abbott Laboratories, priority 1998, dated 2001):
Several values for one entry are separate records, joined by “and”; a condition that tells them apart may be missing. Equal values may be shown once. Read-outs that look alike come from different tables or passages of the source.

What was measured:
human P2X4 receptor = biological target: T1, human P2X4 receptor (Homo sapiens, UniProt Q99571); assay: Two-electrode voltage-clamp of Xenopus oocytes expressing recombinant human P2X4 receptors; assay type: cell-based
T1 construct: expressed in transfected cells; host or cells: Xenopus laevis oocytes, nuclear injection of P2X4-pCDNA3.1 DNA (10 ng) or cytoplasmic injection of RNA (50 ng)
T1 sequence (Q99571 1-388): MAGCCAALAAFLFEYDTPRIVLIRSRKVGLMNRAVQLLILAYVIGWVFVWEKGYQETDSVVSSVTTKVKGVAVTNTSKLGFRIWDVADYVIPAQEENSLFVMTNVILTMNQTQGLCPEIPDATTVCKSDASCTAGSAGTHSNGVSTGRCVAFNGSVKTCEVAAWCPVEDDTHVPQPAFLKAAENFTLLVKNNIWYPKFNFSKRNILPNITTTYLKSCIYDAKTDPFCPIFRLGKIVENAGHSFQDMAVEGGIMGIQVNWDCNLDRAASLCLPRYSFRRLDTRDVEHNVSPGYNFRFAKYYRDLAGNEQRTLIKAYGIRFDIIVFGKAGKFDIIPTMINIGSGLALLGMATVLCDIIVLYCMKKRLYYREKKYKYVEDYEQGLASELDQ
Method: Responses were measured at a holding potential of -60 mV in modified Barth's solution containing 10 mM BaCl2 and lacking CaCl2 and MgCl2. However, in some experiments, the cell potential was intentionally varied in order to determine the response current-voltage relationship. Agonist was applied briefly using a computer-controlled solenoid valve and a push/pull applicator positioned to within 200-400 μm from the oocyte. Responses were recorded by computer in synchrony with agonist application. Antagonists were included with agonist in the push/pull applicator and were applied to the bath by superfusion for at least 3 minutes before application of agonist. Responses were quantified by measuring the peak amplitude.
The clone was grown up and prepared in large scale using the QlAgen maxiprep DNA preparation system according to the manufacturer's instructions. The DNA was ethanol precipitated and resuspended in TE buffer. For RNA production, the P2X4 -pCNDA3.1 cvonstruct was linearized by digestion with the restriction enzyme Notl and P2X4 messenger RNA was produced using the T7 promoter in this vector and the Ambion mMessage mMachine in vitro transcription kit according to the manufacturer's instructions.
For functional analysis of human P2X4 receptors, 10 ng of human P2X4 receptor DNA prepared as described above was injected into the nucleus of Xenopus oocytes. Alternatively, 50 ng of human P2X4 receptor RNA prepared as described above was injected into the ooxyte cytoplasm. Oocytes were incubated in normal Barth's solution containing 100 μg/ml gentamicin for 2-7 days following injection. The response to 10 μM ATP was then recorded.

hP2X2a receptors = biological target: T2, hP2X2a receptors (Homo sapiens, UniProt Q9UBL9); assay: Two-electrode voltage-clamp of Xenopus oocytes expressing hP2X2a receptors; assay type: cell-based
T2 construct: expressed in transfected cells; host or cells: Xenopus laevis oocytes, cytoplasmic injection of 50 ng in vitro transcribed RNA, one subtype per cell
T2 sequence (Q9UBL9 1-471): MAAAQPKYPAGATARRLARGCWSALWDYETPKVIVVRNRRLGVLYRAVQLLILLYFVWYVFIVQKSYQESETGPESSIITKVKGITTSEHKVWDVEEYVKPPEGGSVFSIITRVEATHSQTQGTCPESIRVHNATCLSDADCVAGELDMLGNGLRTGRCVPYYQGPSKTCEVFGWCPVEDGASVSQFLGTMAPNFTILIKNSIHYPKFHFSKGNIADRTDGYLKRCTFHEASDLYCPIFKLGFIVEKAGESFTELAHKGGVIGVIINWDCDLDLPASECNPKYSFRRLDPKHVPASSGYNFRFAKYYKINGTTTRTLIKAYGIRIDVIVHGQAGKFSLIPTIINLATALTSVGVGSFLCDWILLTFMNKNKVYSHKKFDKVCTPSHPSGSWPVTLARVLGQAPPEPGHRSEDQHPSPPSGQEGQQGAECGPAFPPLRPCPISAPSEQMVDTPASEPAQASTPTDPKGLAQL
Method: (§1) To assess function of the human P2X2 receptors, RNA was synthesized from the clones using the T7 bacterial promoter present on the pCRscript vector and reagents from Ambion (Message Machine; Ambion, Inc., Austin Tex.).
(§2) Adult female frogs (Xenopus laevis) were anesthetized with 0.2% tricaine before surgery. During surgery, sections of one ovary were removed and oocytes were denuded of overlying follicle cells by agitation for 1-2 hours in 2 mg/ml collagenase (Sigma type IA) in low-Ca^2+ Barth's solution containing (in mM): 88 NaCl, 2.5 KCl, 1.0 MgCl2 10 Na-HEPES (pH 7.4) plus 100 μg/ml gentamicin. Selection of stage V and VI oocytes was begun after approximately 50% of the cells were denuded. Cytoplasmic injections of 50 ng hP2X2a-d RNA were performed on denuded oocytes using a glass microelectrode. Only one receptor subtype RNA was injected per cell. Oocytes were used for recording 1-2 days after injection and were maintained at 16-19° C. in normal Barth's solution (incubation medium in mM): 90 NaCl, 1.0 KCl, 0.66 NaNO3, 0.74 CaCl2, 0.82 MgCl2, 2.4 NaHCO3, 2.5 Na-pyruvate, 10 Na-HEPES (pH 7.4) plus 100 μg/ml gentamicin.
(§3) The standard recording solution contained (in mM): 96 NaCl, 2.0 KCl, 1.8 BaCl2, 1.0 MgCl2, 5.0 Na-pyruvate, and 5.0 Na-HEPES (pH 7.4). BaCl2 was replaced with CaCl2 (1 mM) in some experiments without significant effects on the pharmacological properties of the receptors. All oocyte solutions were diluted in distilled H2 O from 10×stock solutions. Concentrated stocks of agonists and antagonists were made in distilled H2 O and then serially diluted in recording solution to desired final concentrations. All chemicals and agonists (ATP and α,βme-ATP) were obtained from Sigma Chemical Company.
(§4) Transmembrane currents were recorded using two-electrode voltage-clamp techniques with an Axoclamp-2 A amplifier, and were collected and analyzed using pCLAMP software (Axon Instruments). Electrodes (1.5-2.0 M'.OMEGA.) were filled with 120 mM KCl. Responses to ATP and α,βme-ATP were routinely recorded at room temperature while the oocyte membrane was voltage-clamped at -60 mV. […]

hP2X2b receptors = biological target: T3, hP2X2b receptors (Homo sapiens, UniProt Q9UBL9); assay: Two-electrode voltage-clamp of Xenopus oocytes expressing hP2X2b receptors; assay type: cell-based
T3 construct: expressed in transfected cells; host or cells: Xenopus laevis oocytes, cytoplasmic injection of 50 ng in vitro transcribed RNA, one subtype per cell
T3 sequence (Q9UBL9 1-404 isoform Q9UBL9-2): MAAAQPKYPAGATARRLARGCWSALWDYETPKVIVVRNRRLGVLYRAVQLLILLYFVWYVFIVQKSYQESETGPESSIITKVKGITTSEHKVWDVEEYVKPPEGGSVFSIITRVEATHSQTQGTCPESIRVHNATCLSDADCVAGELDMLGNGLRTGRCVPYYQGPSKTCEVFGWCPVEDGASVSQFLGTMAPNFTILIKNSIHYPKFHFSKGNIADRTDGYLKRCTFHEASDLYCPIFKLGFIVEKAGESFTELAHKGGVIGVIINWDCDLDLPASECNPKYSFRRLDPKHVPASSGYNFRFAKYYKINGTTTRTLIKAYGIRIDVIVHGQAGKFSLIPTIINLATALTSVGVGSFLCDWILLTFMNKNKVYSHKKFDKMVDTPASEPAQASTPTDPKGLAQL
Method: as §1, §2, §3, §4

hP2X2c = assay: Two-electrode voltage-clamp of Xenopus oocytes injected with hP2X2c RNA; assay type: cell-based, human; details: 30 μM ATP, transient external application
Method: as §1
as §2, with “Oocytes were used for recording 1-2 days after injection and were maintained at 16-19° C. in normal Barth's solution (incubation medium in mM): 90 NaCl, 1.0 KCl, 0.66 NaNO3, 0.74 CaCl2, 0.82 MgCl2, 2.4 NaHCO3, 2.5 Na-pyruvate, 10 Na-HEPES (pH 7.4) plus 100 μg/ml gentamicin.” left out
(§5) Transmembrane currents were recorded using two-electrode voltage-clamp techniques with an Axoclamp-2 A amplifier, and were collected and analyzed using pCLAMP software (Axon Instruments). […] Responses to ATP and α,βme-ATP were routinely recorded at room temperature while the oocyte membrane was voltage-clamped at -60 mV. […]

hP2X2d = assay: Two-electrode voltage-clamp of Xenopus oocytes injected with hP2X2d RNA; assay type: cell-based, human; details: 30 μM ATP, transient external application
Method: as §1
as §2, with “Oocytes were used for recording 1-2 days after injection and were maintained at 16-19° C. in normal Barth's solution (incubation medium in mM): 90 NaCl, 1.0 KCl, 0.66 NaNO3, 0.74 CaCl2, 0.82 MgCl2, 2.4 NaHCO3, 2.5 Na-pyruvate, 10 Na-HEPES (pH 7.4) plus 100 μg/ml gentamicin.” left out
as §5

SMILES: Cc1ccc(C(=O)Nc2ccc(S(=O)(=O)O)c3cc(S(=O)(=O)O)cc(S(=O)(=O)O)c23)cc1NC(=O)c1cccc(NC(=O)Nc2cccc(C(=O)Nc3cc(C(=O)Nc4ccc(S(=O)(=O)O)c5cc(S(=O)(=O)O)cc(S(=O)(=O)O)c45)ccc3C)c2)c1 [suramin]
- antagonism of ATP-induced currents (human P2X4 receptor; DNA-injected oocytes, suramin 10 μM, ATP 10 μM): failed to depress
- antagonism of ATP responses (human P2X4 receptor; RNA-injected oocytes, suramin 1 μM, ATP 3 μM): failed to depress
- antagonism of ATP responses (human P2X4 receptor; RNA-injected oocytes, suramin 10 μM, ATP 3 μM): failed to depress
- remaining activity at 100 µM (human P2X4 receptor; RNA-injected oocytes, suramin 100 μM, ATP 3 μM, read-out: ATP response remaining, % of control): ~80%

SMILES: Nc1ncnc2c1ncn2[C@@H]1O[C@H](COP(=O)(O)CP(=O)(O)OP(=O)(O)O)[C@@H](O)[C@H]1O [αβMe-ATP, α,β-methylene-ATP]
- agonist effect on receptor current (hP2X2a receptors; 100 μM agonist, hP2X2a): had no effect
- agonist effect on receptor current (hP2X2b receptors; 100 μM agonist, hP2X2b): had no effect
- Emax (human P2X4 receptor; RNA-injected oocytes, read-out: maximal current relative to maximal ATP current): 20 to 25%

SMILES: Nc1ncnc2c1ncn2[C@@H]1O[C@H](COP(=O)(O)OP(=O)(O)OP(=O)(O)O)[C@@H](O)[C@H]1O [ATP]
- Hill coefficient (nH) (hP2X2a receptors; oocytes expressing hP2X2a, four cells): 1.5
- EC50 (hP2X2a receptors; oocytes expressing hP2X2a, four cells, -60 mV, read-out: mean ATP EC50 (peak inward current)): 16 µM
- Hill coefficient (nH) (hP2X2b receptors; oocytes expressing hP2X2b, three cells): 1.5
- EC50 (hP2X2b receptors; oocytes expressing hP2X2b, three cells, -60 mV, read-out: mean ATP EC50 (peak inward current)): 20 µM
- agonist effect on receptor current (hP2X2c): had no effect
- agonist effect on receptor current (hP2X2d): had no effect
- EC50 (human P2X4 receptor; DNA-injected oocytes, concentration-response 0.1-1000 μM ATP): ~2 µM and 1 to 2 µM
- EC50 (human P2X4 receptor; RNA-injected oocytes, read-out: ATP EC50): 1 to 2 µM
- mixed-conductance cation current on extracellular application of ATP (human P2X4 receptor; oocytes injected with human P2X4 receptor DNA): 100-1000 nA
